{"source": "patent US20260297060A1", "about": "“COMPOUNDS FOR THE DEGRADATION OF MUTANT BRAF” (C4 THERAPEUTICS, INC., priority 2023, published 2026)", "system": "A375 human melanoma xenografts", "assay": "In vivo therapeutic efficacy in A375 human melanoma xenografts (tumor volume, T/C, TGI), Example 14", "parameters": "species or system human tumor in female BALB/c nude mice", "settings": "for T/C / TGI: PG-D21", "description": "Agents were tested in the A375 human melanoma xenografts. Compound 26 and Compound 141 were administered to BALB/c nude mice bearing A375 tumors from PG-DO and dosed via PO twice a day (BID) or third a day (TIP) or dosed P daily (QD) from PG-D. Dabrafenib was administered to BALB/c nude mice bearing A375 tumors from PG-D1 and dosed via P daily (QD). Compound 26 was dosed at 1.5 mg/kg (QD), 2 mg/kg (TID), 3 mg/kg (BID), 6 mg/kg (QD) and 10 mg/kg (BID) for 21 days. Compound 141 was dosed at 0.75 mg/kg (BID), 1 mg/kg (TID), 1.5 mg/kg (BID), 3 mg/kg (QD) and 5 mg/kg (BID) for 21 days. Dabrafenib was dosed at 100 mg/kg for 21 days. This study was non-GLP.\nOne hundred and thirty-eight female BALB/c nude Mus Musculus mice procured from Shanghai Lingchang Biological Science and Technology Co., LTD between the ages of six to eight weeks and with body weight between eighteen and twenty-two grams were used for the study. A spare mouse was also procured.\nThe A375 tumor cells were maintained in vitro in DMEM medium supplemented with 10% fetal bovine serum and 1% Penicillin-Streptomycin at 37° C. in an atmosphere of 5% CO2 in air. The tumor cells were routinely sub-cultured twice weekly. The cells growing in an exponential growth phase were harvested and counted for tumor inoculation.\nEach mouse was inoculated subcutaneously at the right flank with A375 cells (5×10^6) in 0.2 mL of PBS supplemented with Matrigel (PBS: Matrigel=1:1) for tumor development. Animals were grouped for efficacy study on day 15 after tumor inoculation when the average tumor volume reached 220 mm^3. The test articles administration and the animal numbers in each group are shown in the above experimental Table 75.\nAt the time of routine monitoring, the animals were checked daily for any effects of tumor growth and treatments on normal behavior such as mobility, food and water consumption (by looking only), body weight gain/loss (body weights were measured twice weekly), eye/hair matting and any other abnormal effect as stated in the protocol. Death and observed clinical signs were recorded on the basis of the numbers of animals within each subset.\nPrior to the onset of drug treatment, mice were measured for tumor size in two dimensions using a caliper, and the tumor volume (mm^3) was calculated using formula V=0.5 a×b^2 where a and b are the long and short diameters of the tumor in mm, respectively. Mice were randomized into different treatment groups based on the tumor volume.\nThe major endpoint was to see if the tumor growth could be delayed or mice could be cured. The tumor size was then used for calculations of T/C value. The T/C value (in percent) is an indication of antitumor effectiveness; T and C are the mean volumes of the treated and control groups, respectively on specified day.\nTGI was calculated for each group using the formula: TGI (%)=[1−(Ti−T0)/(Ci−C0)]×100; Ti is the average tumor volume of a treatment group on a given day, T0 is the average tumor volume of the treatment group on the day of treatment start, Ci is the average tumor volume of the vehicle control group on the same day with Ti, and C0 is the average tumor volume of the vehicle group on the day of treatment start.\nA one-way ANOVA followed by Dunnett's multiple comparison test was performed to compare tumor volume among vehicle group (Group 1) and treatment groups (Group 2-Group 12). All data were analyzed using GraphPad Prism, ns indicates p>0.05, * indicates p<0.05, ** indicates p<0.01, *** indicates p<0.001 and **** indicates p<0.0001.\nTumor growth inhibition of Compound 26, Compound 141 and dabrafenib in the treatment of female BALB/c nude mice bearing A375 xenografts was calculated based on tumor volume measured on […]. TGI and T/C were calculated respectively and the data are detailed in Table 82.", "key": {"[1]": {"settings": "Compound 141, 1.5 mg/kg p.o. BID × 21 days"}}}
{"smiles": "CCN(C)S(=O)(=O)Nc1ccc(F)c(Oc2ccc3ncn(C4CC5(CCN(C6CC7(C6)CN(c6cc8c(cc6F)c(N6CCC(=O)NC6=O)nn8C)C7)CC5)C4)c(=O)c3c2)c1C#N", "note": "(stereo not drawn) [Compound 141, 6-[2-cyano-3-[[ethyl(methyl)sulfamoyl]amino]-6-fluoro-phenoxy]-3-[7-[2-[3-(2,4-dioxohexahydropyrimidin-1-yl)-5-fluoro-1-methyl-indazol-6-yl]-2-azaspiro[3.3]heptan-6-yl]-7-azaspiro[3.5]nonan-2-yl]-4-oxo-quinazoline]", "values": [{"measurement": "Tumor volume", "setting": "1.5 mg/kg p.o. BID x 21 days, day 35 (dosing-free regrowth), mean ± SEM", "result": "1374 ± 116", "unit": "mm^3"}, {"measurement": "Tumor volume", "setting": "1.5 mg/kg p.o. BID x 21 days, day 39 (dosing-free regrowth), mean ± SEM", "result": "1709 ± 117", "unit": "mm^3"}, {"measurement": "Tumor volume", "setting": "1.5 mg/kg p.o. BID x 21 days, day 42 (dosing-free regrowth), mean ± SEM", "result": "2051 ± 177", "unit": "mm^3"}, {"measurement": "Tumor volume", "setting": "1.5 mg/kg p.o. BID x 21 days, day 46 (dosing-free regrowth), mean ± SEM", "result": "2593 ± 258", "unit": "mm^3"}, {"measurement": "Tumor volume", "setting": "1.5 mg/kg p.o. BID x 21 days, day 49 (dosing-free regrowth), mean ± SEM", "result": "2727 ± 382", "unit": "mm^3"}, {"measurement": "Tumor volume", "setting": "1.5 mg/kg p.o. BID x 21 days, day 53 (dosing-free regrowth), mean ± SEM", "result": "3079 ± 78", "unit": "mm^3"}, {"measurement": "Tumor volume", "setting": "3 mg/kg p.o. QD x 21 days, day 0, mean ± SEM", "result": "220 ± 15", "unit": "mm^3"}, {"measurement": "Tumor volume", "setting": "3 mg/kg p.o. QD x 21 days, day 4, mean ± SEM", "result": "253 ± 15", "unit": "mm^3"}, {"measurement": "Tumor volume", "setting": "3 mg/kg p.o. QD x 21 days, day 7, mean ± SEM", "result": "214 ± 17", "unit": "mm^3"}, {"measurement": "Tumor volume", "setting": "3 mg/kg p.o. QD x 21 days, day 11, mean ± SEM", "result": "169 ± 15", "unit": "mm^3"}, {"measurement": "Tumor volume", "setting": "3 mg/kg p.o. QD x 21 days, day 14, mean ± SEM", "result": "144 ± 16", "unit": "mm^3"}, {"measurement": "Tumor volume", "setting": "3 mg/kg p.o. QD x 21 days, day 18, mean ± SEM", "result": "172 ± 19", "unit": "mm^3"}, {"measurement": "Tumor volume", "setting": "3 mg/kg p.o. QD x 21 days, day 21, mean ± SEM", "result": "208 ± 30", "unit": "mm^3"}, {"measurement": "Tumor volume", "setting": "3 mg/kg p.o. QD x 21 days, day 25 (dosing-free regrowth), mean ± SEM", "result": "486 ± 63", "unit": "mm^3"}, {"measurement": "Tumor volume", "setting": "3 mg/kg p.o. QD x 21 days, day 28 (dosing-free regrowth), mean ± SEM", "result": "773 ± 63", "unit": "mm^3"}, {"measurement": "Tumor volume", "setting": "3 mg/kg p.o. QD x 21 days, day 32 (dosing-free regrowth), mean ± SEM", "result": "985 ± 85", "unit": "mm^3"}, {"measurement": "Tumor volume", "setting": "3 mg/kg p.o. QD x 21 days, day 35 (dosing-free regrowth), mean ± SEM", "result": "1339 ± 71", "unit": "mm^3"}, {"measurement": "Tumor volume", "setting": "3 mg/kg p.o. QD x 21 days, day 39 (dosing-free regrowth), mean ± SEM", "result": "1690 ± 103", "unit": "mm^3"}, {"measurement": "Tumor volume", "setting": "3 mg/kg p.o. QD x 21 days, day 42 (dosing-free regrowth), mean ± SEM", "result": "2099 ± 177", "unit": "mm^3"}, {"measurement": "Tumor volume", "setting": "3 mg/kg p.o. QD x 21 days, day 46 (dosing-free regrowth), mean ± SEM", "result": "2737 ± 176", "unit": "mm^3"}, {"measurement": "Tumor volume", "setting": "3 mg/kg p.o. QD x 21 days, day 49 (dosing-free regrowth), mean ± SEM", "result": "3078 ± 168", "unit": "mm^3"}, {"measurement": "Tumor volume", "setting": "3 mg/kg p.o. QD x 21 days, day 53 (dosing-free regrowth)", "result": 3659, "unit": "mm^3"}, {"measurement": "Tumor Size on PG-D21 (Mean ± SEM)", "setting": "3 mg/kg p.o. QD × 21 days", "result": "208 ± 30", "unit": "mm^3"}, {"measurement": "T/C", "setting": "3 mg/kg p.o. QD × 21 days", "result": 11.0, "unit": "%"}, {"measurement": "TGI", "setting": "3 mg/kg p.o. QD × 21 days", "result": 100.8, "unit": "%"}, {"measurement": "Tumor volume", "setting": "5 mg/kg p.o. BID x 21 days, day 0, mean ± SEM", "result": "220 ± 15", "unit": "mm^3"}, {"measurement": "Tumor volume", "setting": "5 mg/kg p.o. BID x 21 days, day 4, mean ± SEM", "result": "166 ± 11", "unit": "mm^3"}, {"measurement": "Tumor volume", "setting": "5 mg/kg p.o. BID x 21 days, day 7, mean ± SEM", "result": "100 ± 7", "unit": "mm^3"}, {"measurement": "Tumor volume", "setting": "5 mg/kg p.o. BID x 21 days, day 11, mean ± SEM", "result": "60 ± 4", "unit": "mm^3"}, {"measurement": "Tumor volume", "setting": "5 mg/kg p.o. BID x 21 days, day 14, mean ± SEM", "result": "38 ± 2", "unit": "mm^3"}, {"measurement": "Tumor volume", "setting": "5 mg/kg p.o. BID x 21 days, day 18, mean ± SEM", "result": "27 ± 3", "unit": "mm^3"}, {"measurement": "Tumor volume", "setting": "5 mg/kg p.o. BID x 21 days, day 21, mean ± SEM", "result": "23 ± 3", "unit": "mm^3"}, {"measurement": "Tumor volume", "setting": "5 mg/kg p.o. BID x 21 days, day 25 (dosing-free regrowth), mean ± SEM", "result": "31 ± 9", "unit": "mm^3"}, {"measurement": "Tumor volume", "setting": "5 mg/kg p.o. BID x 21 days, day 28 (dosing-free regrowth), mean ± SEM", "result": "56 ± 24", "unit": "mm^3"}, {"measurement": "Tumor volume", "setting": "5 mg/kg p.o. BID x 21 days, day 32 (dosing-free regrowth), mean ± SEM", "result": "109 ± 40", "unit": "mm^3"}, {"measurement": "Tumor volume", "setting": "5 mg/kg p.o. BID x 21 days, day 35 (dosing-free regrowth), mean ± SEM", "result": "190 ± 67", "unit": "mm^3"}, {"measurement": "Tumor volume", "setting": "5 mg/kg p.o. BID x 21 days, day 39 (dosing-free regrowth), mean ± SEM", "result": "345 ± 111", "unit": "mm^3"}, {"measurement": "Tumor volume", "setting": "5 mg/kg p.o. BID x 21 days, day 42 (dosing-free regrowth), mean ± SEM", "result": "484 ± 147", "unit": "mm^3"}, {"measurement": "Tumor volume", "setting": "5 mg/kg p.o. BID x 21 days, day 46 (dosing-free regrowth), mean ± SEM", "result": "732 ± 181", "unit": "mm^3"}, {"measurement": "Tumor volume", "setting": "5 mg/kg p.o. BID x 21 days, day 49 (dosing-free regrowth), mean ± SEM", "result": "1015 ± 308", "unit": "mm^3"}, {"measurement": "Tumor volume", "setting": "5 mg/kg p.o. BID x 21 days, day 53 (dosing-free regrowth), mean ± SEM", "result": "1470 ± 351", "unit": "mm^3"}, {"measurement": "Tumor volume", "setting": "5 mg/kg p.o. BID x 21 days, day 56 (dosing-free regrowth), mean ± SEM", "result": "1433 ± 181", "unit": "mm^3"}, {"measurement": "Tumor Size on PG-D21 (Mean ± SEM)", "setting": "5 mg/kg p.o. BID × 21 days", "result": "23 ± 3", "unit": "mm^3"}, {"measurement": "T/C", "setting": "5 mg/kg p.o. BID × 21 days", "result": 1.2, "unit": "%"}, {"measurement": "TGI", "setting": "5 mg/kg p.o. BID × 21 days", "result": 111.8, "unit": "%"}, {"measurement": "Tumor Size on PG-D21 (Mean ± SEM)", "setting": "[1]", "result": "208 ± 21", "unit": "mm^3"}, {"measurement": "T/C", "setting": "[1]", "result": 11.1, "unit": "%"}, {"measurement": "TGI", "setting": "[1]", "result": 100.7, "unit": "%"}]}
